Data on 15 compounds can be found in BindingDB's records for doi:10.1111/cbdd.12280 (Universiti Kebangsaan Malaysia, Jalan Raja Muda Abdul Aziz, …, 2014).

The structures appear in SMILES notation.

One experiment has as its target T1, Prostaglandin E synthase (Homo sapiens, UniProt O14684).
T1 sequence (O14684 whole entry): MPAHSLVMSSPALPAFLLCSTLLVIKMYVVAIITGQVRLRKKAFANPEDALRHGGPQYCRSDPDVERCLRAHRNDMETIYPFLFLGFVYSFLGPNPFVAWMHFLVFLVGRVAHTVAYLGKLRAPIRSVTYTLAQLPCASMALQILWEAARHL
The experiment in a line: Microsomal prostaglandin E synthase-1 activity assay. Conditions: pH 7; 20 °C. The procedure: The assay buffer contained 100 mM KHPO4 (pH 7.0), 2 mM EDTA and 2.5 mM reduced GSH. 100 µL of reaction buffer containing human recombinant mPGES-1 was added to 96-well non-binding plate, followed by the addition of test samples to their respective wells. The reaction mixture was incubated for 30 min at 20 °C. […] The reaction was quenched by adding 20 µL of SnCl2 solution in 1 N HCl.

Experiment [1] has as its target T2, Prostaglandin G/H synthase 1 (Ovis aries, UniProt P05979).
T2 sequence (P05979 whole entry): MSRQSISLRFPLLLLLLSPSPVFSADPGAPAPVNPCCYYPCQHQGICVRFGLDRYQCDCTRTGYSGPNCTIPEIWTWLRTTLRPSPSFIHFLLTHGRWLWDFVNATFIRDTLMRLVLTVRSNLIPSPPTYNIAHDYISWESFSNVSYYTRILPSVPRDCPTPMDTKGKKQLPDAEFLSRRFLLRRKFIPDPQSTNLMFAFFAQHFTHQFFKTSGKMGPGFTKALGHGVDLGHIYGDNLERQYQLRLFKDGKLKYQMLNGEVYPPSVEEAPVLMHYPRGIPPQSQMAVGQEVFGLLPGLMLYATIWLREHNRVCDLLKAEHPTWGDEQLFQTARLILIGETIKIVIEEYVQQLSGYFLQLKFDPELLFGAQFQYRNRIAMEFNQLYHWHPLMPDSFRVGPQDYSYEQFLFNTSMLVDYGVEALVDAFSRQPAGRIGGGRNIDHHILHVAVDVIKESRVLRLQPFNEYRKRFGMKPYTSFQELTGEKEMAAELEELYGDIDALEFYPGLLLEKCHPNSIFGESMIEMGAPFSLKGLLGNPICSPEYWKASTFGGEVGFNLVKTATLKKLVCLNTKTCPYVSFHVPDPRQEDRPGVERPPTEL
The experiment in a line: Cyclooxygenase activity assay. The settings on record: pH 8; 37 °C. As to the method:
(§1) Reaction mixture containing 100 mM Tris-HCl buffer (pH 8) and COX-1 (ovine) or COX-2 (human recombinant) was preincubated for 10 min in a water bath at 37 °C. The reaction was initiated by the addition of 10 µL arachidonic acid (final concentration 100 µM). After 2 min, the reaction was terminated by adding 1 M HCl. Test compounds were dissolved in DMSO and diluted to the desired concentration with potassium phosphate buffer of pH 7.4.

The next experiment concerns the target T3, Phospholipase A2 group V (Homo sapiens, UniProt P39877).
T3 sequence (P39877 whole entry): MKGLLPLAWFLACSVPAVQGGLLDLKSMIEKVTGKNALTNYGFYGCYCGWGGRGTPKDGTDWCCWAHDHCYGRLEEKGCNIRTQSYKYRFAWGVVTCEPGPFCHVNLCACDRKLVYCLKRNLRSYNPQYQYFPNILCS
The experiment in a line: sPLA2-V activity assay. The settings on record: pH 8; 25 °C. The procedure:
Substrate 1,2-bis(heptanoylthio)-glycerophosphocholine and human recombinant PLA2-V were resuspended in assay buffer, and DTNB was dissolved in an aqueous solution of Tris-HCl (pH 8).

The next experiment has as its target T4, Lipoxygenase (Glycine max, UniProt Q43440).
T4 sequence (Q43440 whole entry): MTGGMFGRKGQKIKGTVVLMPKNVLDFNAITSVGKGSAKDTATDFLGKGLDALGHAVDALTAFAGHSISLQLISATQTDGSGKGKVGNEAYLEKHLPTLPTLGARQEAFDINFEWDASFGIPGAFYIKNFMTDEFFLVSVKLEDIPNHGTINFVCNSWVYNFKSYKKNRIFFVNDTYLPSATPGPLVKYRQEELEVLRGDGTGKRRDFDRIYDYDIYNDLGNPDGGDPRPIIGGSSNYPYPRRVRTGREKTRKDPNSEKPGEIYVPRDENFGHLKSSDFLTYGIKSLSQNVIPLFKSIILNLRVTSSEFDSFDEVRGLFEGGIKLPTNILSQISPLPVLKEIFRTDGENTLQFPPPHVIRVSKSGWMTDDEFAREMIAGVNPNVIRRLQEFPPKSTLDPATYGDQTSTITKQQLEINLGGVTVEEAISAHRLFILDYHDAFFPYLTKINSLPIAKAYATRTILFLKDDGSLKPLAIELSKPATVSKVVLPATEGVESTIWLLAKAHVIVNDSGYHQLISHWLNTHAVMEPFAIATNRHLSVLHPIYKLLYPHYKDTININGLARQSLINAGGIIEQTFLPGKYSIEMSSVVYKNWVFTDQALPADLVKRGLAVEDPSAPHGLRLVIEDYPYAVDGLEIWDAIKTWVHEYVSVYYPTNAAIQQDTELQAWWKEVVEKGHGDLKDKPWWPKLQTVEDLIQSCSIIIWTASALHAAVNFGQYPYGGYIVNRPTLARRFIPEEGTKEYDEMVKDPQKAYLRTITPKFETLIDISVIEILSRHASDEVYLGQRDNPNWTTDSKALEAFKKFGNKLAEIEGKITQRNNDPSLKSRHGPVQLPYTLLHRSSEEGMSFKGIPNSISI
The experiment in a line: Lipo-oxygenase activity assay. The settings on record: pH 7; 25 °C. As to the method:
The assay was progressed in 96-well microliter plates containing substrate, soybean LOX enzyme, and respective test substance at room temperature in a 0.1 M Tris-HCl buffer solution at pH 7. The reaction was initiated by the addition of substrate solution to all wells and incubated for 5 min, followed by the addition of 100 µL of chromogen solution to all wells to stop enzyme catalysis and incubated for 5 min. The absorbance was measured at 490 nm. Dimethyl sulphoxide served as a negative control.

Experiment [2] has as its target T5, Prostaglandin G/H synthase 2 (Homo sapiens, UniProt P35354).
T5 sequence (P35354 whole entry): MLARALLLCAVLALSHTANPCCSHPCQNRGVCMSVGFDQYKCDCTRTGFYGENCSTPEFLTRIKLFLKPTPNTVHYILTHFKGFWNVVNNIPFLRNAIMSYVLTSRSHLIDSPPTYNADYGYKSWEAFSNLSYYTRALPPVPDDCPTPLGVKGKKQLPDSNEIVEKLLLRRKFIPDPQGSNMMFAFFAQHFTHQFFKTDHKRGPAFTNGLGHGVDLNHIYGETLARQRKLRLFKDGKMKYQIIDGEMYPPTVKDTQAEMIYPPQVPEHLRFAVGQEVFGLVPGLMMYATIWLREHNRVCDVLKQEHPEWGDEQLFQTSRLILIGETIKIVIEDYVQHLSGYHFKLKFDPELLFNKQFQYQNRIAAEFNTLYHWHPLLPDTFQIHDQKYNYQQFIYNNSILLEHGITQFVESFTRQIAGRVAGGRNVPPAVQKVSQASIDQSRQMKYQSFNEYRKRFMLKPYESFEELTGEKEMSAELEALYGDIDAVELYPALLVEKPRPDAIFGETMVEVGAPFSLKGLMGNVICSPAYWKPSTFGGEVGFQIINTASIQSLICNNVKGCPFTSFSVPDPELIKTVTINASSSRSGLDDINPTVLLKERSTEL
Description: Cyclooxygenase activity assay. The settings on record: pH 8; 37 °C. As to the method: as §1

Usually IC50 stands for the concentration that inhibits the measured activity by half. Lower therefore signals inhibition by little substance.

Turning to `CC(C)(C)c1ccc(/C=C/C(=O)/C=C/c2ccc(C(C)(C)C)cc2)cc1`, the IC50 came out at 37 µM at Prostaglandin E synthase, 53.2 µM in experiment [1] and 51.9 µM at Phospholipase A2 group V.

Consider `CCN(CC)c1ccc(/C=C2\CC/C(=C\c3ccc(N(CC)CC)cc3)C2=O)cc1` [2,5-Bis(4-diethylaminobenzylidene)cyclopentanone (17)], for which the IC50 was determined as 5.48 µM on Prostaglandin E synthase, 56.8 µM at Lipoxygenase, 32 µM in experiment [1] and 10.2 µM against Phospholipase A2 group V.

With `COc1cccc(/C=C2\CCC/C(=C\c3cccc(OC)c3OC)C2=O)c1OC` [2,6-Bis(2,3-dimethoxybenzylidene)cyclohexanone (3)], the IC50 at Prostaglandin E synthase is 7.34 µM; against Lipoxygenase it was 47.8 µM; in experiment [2] it was 53.2 µM; in experiment [1], 33.3 µM; at Phospholipase A2 group V, 11 µM.

Regarding `CCN(CC)c1ccc(/C=C2\CCC/C(=C\c3ccc(N(CC)CC)cc3)C2=O)cc1` [2,6-Bis(4-diethyl-aminobenzylidene)cyclohexanone (5)], the IC50 against Prostaglandin E synthase came to 2.41 µM; in experiment [1], 38.5 µM; against Phospholipase A2 group V, 12.1 µM.

Turning to `CCN(CC)c1ccc(/C=C/C(=O)/C=C/c2ccc(N(CC)CC)cc2)cc1` [(1E,4E)‐1,5‐bis[4‐(diethylamino)phenyl]penta‐1,4‐ dien‐3‐one (11)], the IC50 on Prostaglandin E synthase amounted to 6.98 µM; on Lipoxygenase, 95.1 µM; in experiment [2], 94.9 µM; in experiment [1], 37.7 µM; against Phospholipase A2 group V, 16.1 µM.

For the compound `COc1cc(C=CC(=O)CC(=O)C=Cc2ccc(O)c(OC)c2)ccc1O` [(1E,6E)-1,7-bis(4-hydroxy-3-methoxyphenyl)hepta-1,6-diene-3,5-dione], the results for the IC50 (on Prostaglandin E synthase; against Lipoxygenase; in experiment [1]) were 4.88 µM, 57.8 µM and 31.3 µM, respectively.

Take `COc1cccc(/C=C/C(=O)/C=C/c2cccc(OC)c2OC)c1OC` [(1Z,4Z)–1-5-Bis[2,3(dimethoxy)phenyl]-1,4-pentadien-3-one (9)]: the IC50 against Prostaglandin E synthase turned out to be 14.8 µM; against Lipoxygenase it was 62.9 µM; in experiment [2] it was 70.7 µM; in experiment [1] it was 41.5 µM; at Phospholipase A2 group V, 10.4 µM.

For the compound `CC(C=C1CCC(=CC(C)c2ccccc2)C1=O)c1ccccc1` (stereo not drawn) [(2E,5E)‐2,5‐bis(2‐phenylpropylidene)cyclopentan‐1‐ one (16)], the IC50 on Prostaglandin E synthase came to 7.48 µM; in experiment [1], 320 µM.

For `COc1cccc(/C=C2\CC/C(=C\c3cccc(OC)c3OC)C2=O)c1OC` [(2E,5E)‐2,5‐bis[(2,3‐ dimethoxyphenyl)methylidene]cyclopentan‐1‐one (15)], the IC50 worked out at 10.4 µM at Prostaglandin E synthase, 63.8 µM against Lipoxygenase, 40.2 µM in experiment [1] and 16.4 µM at Phospholipase A2 group V.

For the compound `CC(C)(C)c1ccc(/C=C2\CC/C(=C\c3ccc(C(C)(C)C)cc3)C2=O)cc1` [(2E,5E)‐2,5‐bis[(4‐tert‐butyl‐2‐ methylphenyl)methylidene]cyclopentan‐1‐one (14)], the values for the IC50 (at Prostaglandin E synthase; in experiment [1]; on Phospholipase A2 group V) were 24.5 µM, 60 µM and 83.2 µM, respectively.

Turning to `CC(C=C1CCCC(=CC(C)c2ccccc2)C1=O)c1ccccc1` (stereo not drawn) [(2E,6E)‐2,6‐bis(2‐phenylpropylidene)cyclohexan‐1‐ one (4)], the IC50 against Prostaglandin E synthase was found to be 20.3 µM; in experiment [1], 194 µM; against Phospholipase A2 group V, 94.7 µM.

Turning to `CC(C)(C)c1ccc(/C=C2\CCC/C(=C\c3ccc(C(C)(C)C)cc3)C2=O)cc1` [(2E,6E)‐2,6‐bis[(4‐tert‐ butylphenyl)methylidene]cyclohexan‐1‐one (2)], the IC50 against Prostaglandin E synthase was 8.95 µM; in experiment [1], 43.2 µM; against Phospholipase A2 group V, 53.3 µM.

On to `CC(C=CC(=O)C=CC(C)c1ccccc1)c1ccccc1` (stereo not drawn) [(3E,6E)‐2,8‐diphenylnona‐3,6‐dien‐5‐one (10)], for which the values for the IC50 (against Prostaglandin E synthase; in experiment [1]; against Phospholipase A2 group V) were 60.7 µM, 195 µM and 125 µM, respectively.

On Lipoxygenase, `CC(Cc1ccc(O)c(O)c1)C(C)Cc1ccc(O)c(O)c1` (stereo not drawn) [LOX inhibitor, N/A] returned an IC50 of 9.23 µM.

`C[C@@H]1C[C@H]2[C@@H]3CCC4=CC(=O)C=C[C@]4(C)[C@@]3(F)[C@@H](O)C[C@]2(C)[C@@]1(O)C(=O)CO` [dexamethasone (tetramethyl-rhodamine conjugated )] came in with an IC50 on Phospholipase A2 group V of 0.61 µM.
